Tested on: AML MV4-11 cells
Assay: siRNA uptake in AML MV4-11 cells by imaging flow cytometry
Format: cell-based
Experimental: AML MV4-11 cells in growth medium (RPMI 1640 with 10% FBS) were incubated with Duplex-27 (500 nM) for 1 hour at 37° C. For determining VLA-4 independent binding, 140 (10 μM) was included in one condition to block VLA-4 dependent binding. After incubation, the cells were then washed twice with D-PBS and fixed in 1% paraformaldehyde for 10 minutes. The uptake of siRNA was analyzed by imaging flow cytometry using ImageStreamx (Aminis Corporation, Seattle).

## Cc1cccc(Cl)c1C(=O)N[C@@H](Cc1ccc(NC(=O)c2c(Cl)cccc2Cl)cc1)C(=O)O [Example 140]
140 alone at 10 μM, 1 hour at 37° C.
  Mean Cy3 intensity: 663
VLA-4 antagonist 140 present
  effect on the histograph shift of the VLA-4-targeted siRNA duplex: this shift is oblated
